How the values were obtained:
human Sts-1HP [1] = molecular target: T1, human Sts-1HP (Homo sapiens, UniProt Q8TF42); test: Inhibition of Sts-1HP phosphatase activity; assay type: biochemical; details: known phosphatase inhibitors tested
PTP-1B = details: cited from earlier work
human Sts-2HP = molecular target: T2, human Sts-2HP (Homo sapiens, UniProt P57075); test: Steady state kinetics of phosphatase substrates, human Sts-2HP; assay type: biochemical; details: substrate as labelled, 298 K
T2 sequence (P57075 393-657): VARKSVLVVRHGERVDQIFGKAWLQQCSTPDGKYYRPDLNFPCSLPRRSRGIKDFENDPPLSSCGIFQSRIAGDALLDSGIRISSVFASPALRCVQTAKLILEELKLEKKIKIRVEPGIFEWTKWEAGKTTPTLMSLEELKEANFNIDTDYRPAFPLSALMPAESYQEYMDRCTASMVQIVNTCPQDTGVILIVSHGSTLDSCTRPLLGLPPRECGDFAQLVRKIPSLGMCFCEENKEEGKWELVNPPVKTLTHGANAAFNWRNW

human Sts-1HP [2] = molecular target: T1, human Sts-1HP; test: Steady state kinetics of phosphatase substrates, human Sts-1HP; assay type: biochemical; details: substrate as labelled, 298 K
Full-length Sts-1 = Full-length Sts-1 (Homo sapiens, UniProt Q8TF42); test: Steady state kinetics of phosphatase substrates, full-length Sts-1; assay type: biochemical; details: substrate as labelled, 298 K
Sequence of Full-length Sts-1 (Q8TF42 whole entry, the tested form may be a part): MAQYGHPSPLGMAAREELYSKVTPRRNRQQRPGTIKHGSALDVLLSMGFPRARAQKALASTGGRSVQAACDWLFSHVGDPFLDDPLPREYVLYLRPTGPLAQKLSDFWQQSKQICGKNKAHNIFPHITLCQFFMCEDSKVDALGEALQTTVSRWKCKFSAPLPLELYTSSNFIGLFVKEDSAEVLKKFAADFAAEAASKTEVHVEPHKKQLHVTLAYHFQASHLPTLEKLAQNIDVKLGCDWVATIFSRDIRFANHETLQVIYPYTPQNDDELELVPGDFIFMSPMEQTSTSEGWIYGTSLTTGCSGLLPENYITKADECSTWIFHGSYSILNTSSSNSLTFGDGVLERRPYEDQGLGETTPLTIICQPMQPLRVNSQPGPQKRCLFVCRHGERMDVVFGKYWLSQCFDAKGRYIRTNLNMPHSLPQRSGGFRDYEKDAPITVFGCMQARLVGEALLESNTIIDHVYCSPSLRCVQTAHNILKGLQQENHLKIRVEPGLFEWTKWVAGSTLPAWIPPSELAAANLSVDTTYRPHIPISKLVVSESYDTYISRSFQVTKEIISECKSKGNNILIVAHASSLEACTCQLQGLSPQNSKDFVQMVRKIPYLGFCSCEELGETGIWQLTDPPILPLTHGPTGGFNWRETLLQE

[3] = molecular target: histidine phosphatase domain of human Sts-1 (Sts-1HP) (human) (UniProt Q8TF42); test: crystal structure

T1 sequence (Q8TF42 380-647): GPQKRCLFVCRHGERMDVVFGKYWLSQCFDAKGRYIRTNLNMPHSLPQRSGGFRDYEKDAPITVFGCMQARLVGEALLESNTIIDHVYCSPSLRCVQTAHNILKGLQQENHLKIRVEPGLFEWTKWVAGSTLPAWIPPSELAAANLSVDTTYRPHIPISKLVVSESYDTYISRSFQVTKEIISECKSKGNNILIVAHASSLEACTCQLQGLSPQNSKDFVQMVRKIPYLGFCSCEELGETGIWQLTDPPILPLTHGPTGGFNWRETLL

Compound | inhibition of Sts-1HP phosphatase activity (in words) (human Sts-1HP [1]) | Km (human Sts-2HP) [µM] | kcat (human Sts-2HP) [s⁻¹] | Km (human Sts-1HP [2]) [µM] | kcat (human Sts-1HP [2]) [s⁻¹] | further results
O=C1C(=NNc2ccc(S(=O)(=O)O)cc2)C(c2ccc([N+](=O)[O-])cc2)=NN1c1ccccc1 [PHPS1, 4-[2-[1,5-dihydro-3-(4-nitrophenyl)-5-oxo-1-phenyl-4H-pyrazol-4-ylidene]hydrazinyl]-benzenesulfonic acid] | potent competitive inhibitor |  |  |  |  | IC50 (PTP-1B): 19 µM
O=[N+]([O-])c1ccc(OP(=O)(O)O)cc1 [pNPP, para-nitrophenyl phosphate] |  | 5610 ± 1690 | 1.23 ± 0.15 | 2640 ± 480 | 13.62 ± 0.63 | Km (Full-length Sts-1): 3310 ± 270 µM; kcat (Full-length Sts-1): 158.6 ± 6.48 s⁻¹
COc1ccc2c(c1)Oc1cc(OP(=O)(O)O)ccc1C21OC(=O)c2ccccc21 (stereo not drawn) [OMFP, 3-O-Methylfluorescein phosphate] |  | 1070 ± 240 | 5.86 ± 0.78 | 190 ± 30 | 786.1 ± 52.4 | 
O=P(O)(O)OC(CO)CO [β-glycerophosphate] | did not show any observable level of inhibition |  |  |  |  | 
Cc1cc(=O)oc2c(F)c(OP(=O)(O)O)c(F)cc12 [DifMUP, 6,8-Difluoro-4-Methylumbelliferyl Phosphate] |  | 850 ± 230 | 4.92 ± 0.76 | 2 | 100.68 | 
Nc1ccc(S(=O)(=O)O)cc1 [Sulfanilic acid] | modest inhibitor |  |  |  |  | 
histidine phosphatase domain of human Sts-1 (Sts-1HP) (from UniProt Q8TF42 369-636) (domain or fragment) |  |  |  |  |  | stoichiometry N [3]: 2
CN(N=O)c1ccc(O)c(O)c1 [Methyl-dephostatin, methyl-3,4-dephostatin] | not affected |  |  |  |  | IC50 (PTP-1B): 3.5 µM
